# In article PMC6615598, “Novel antibiotics effective against gram-positive and -negative multi-resistant bacteria with limited resistance” (PLoS Biology, 2019):
# Several values for one entry are separate records, joined by “and”; a condition that tells them apart may be missing. Equal entries are not always repeated. Where two headings read alike, the source gives them in different places.
# Tests used:
# P. aeruginosa 15643 [1] = assay: microbe, parasite or virus in culture
# Method: (§1) For 15 d in MHB, MICs were determined daily for each pseudopeptide and their antibiotic controls. This was done using cells from the well in which the compound concentration was one-half of the MIC (1/2MIC). For each compound, the 1/2MIC well from the previous day’s MIC assay plate was re-suspended and the bacteria grown to a density of about 10^8 cells ml−1. The suspension was diluted in MHB or CAMHB (10^6 cells/ml) and then used to determine the MIC of the same compound determined by micro broth dilution. All MIC measurements were performed in duplicate. Aliquots of the 5 × 10^4 cell/ml dilutions for each 1/2MIC well were periodically plated on MHB and incubated at 35°C for 18 h to verify cell density by colony counts and for visual inspection of colony phenotypes. To control compound stability, peptide solution MICs were determined during and at the end of the 15 d and were compared to cells unexposed to antibiotics. In vivo resistance was also assessed in treated mice (1.5 mg.kg^−1) for 4 d (sepsis) or 6 d (skin abscesses). […] The broth microdilution method was performed as per EUCAST recommendations on 5 independent colonies per mouse (3 mice per set, 15 colonies per drug tested). For severe sepsis and subcutaneous abscesses, in vivo resistance was determined by plating aliquots of crude kidney extracts or abscesses on plates containing 1-, 2-, 4-, or 8-fold the peptide MICs 7 or 3 d post infections, respectively.
# E. coli MCR1 = assay: microbe, parasite or virus in culture
# Method: as §1
# E. coli 13090 = assay: microbe, parasite or virus in culture
# Method: as §1
# E. coli K12 = assay: microbe, parasite or virus in culture
# Method: as §1
# S. aureus N315 (MRSA) = assay: microbe, parasite or virus in culture
# Method: (§2) (10−4 M final concentrations). At selected time intervals, 100 μl of reaction mixture was collected, quenched by 200 μl 95% EtOH, and adjusted at pH 2 to prevent peptide adsorption to serum proteins. […] Supernatants were analyzed by RP-HPLC on an Xbridge C18 column with a linear gradient of water, 0.08% TFA, and acetonitrile with 1% TFA. HPLC peak areas were used to calculate the percentages of intact compound remaining at the various time points. MIC and MBC values were determined in triplicate in many ESKAPE clinical isolates, including a dozen MDR S. aureus, by the broth microdilution method. Peptidomimetics and antibiotics were assayed in a concentration range of 1 to 128 μM. The bacterial inoculum (5 × 10^5 colony-forming units [CFUs]/well) was prepared in MHB or CAMHB (150 μl). A Biotek Synergy 2 spectrophotometer was used to record the results after 18–20 h incubation at 35°C (±2°C). […] After every hour of culture for 4 h, serial dilutions were plated on BHI plates and incubated overnight at 37°C, and then the CFUs were counted and expressed as log CFU/ml. Phosphate-buffered saline (PBS)-exposed S. aureus MRSA was included as a control.
# MSSA (Newman) = assay: microbe, parasite or virus in culture; details: for MIC: Staphylococcus aureus
# Method: as §1
# MRSA (Mu3) = assay: microbe, parasite or virus in culture
# Method: as §1
# P. aeruginosa LESB58 = assay: Cutaneous abscess mouse model (CFU); format: in vivo, mice; details: cutaneous abscesses induced by P. aeruginosa in mice; repeated doses post-infection, 9 mg/kg; second data set; individual values
# Method: For the cutaneous abscess model, the mice were randomly divided into 5 sets. The mice were anesthetized with isoflurane, their dorsal fur shaved, and their skin disinfected with 70% ethanol. An overnight culture of S. aureus MRSA or P. aeruginosa LESB58 was washed with 0.9% NaCl, and then a subcutaneous injection of 2 × 10^9 CFUs and an equal amount of sterile Cytodex microcarrier beads (20 mg.ml^−1, Sigma) for S. aureus MRSA, or 10^8 CFUs for P. aeruginosa were injected into the shaved area. […] Mice were monitored every day and then euthanized with CO2 on Day 6 or on Day 3. Abscesses were excised, measured, and homogenized in PBS using an Ultra-Turax. Serial dilutions of the samples were plated on BHI (MRSA) or 2YT medium (LESB58) plates and then incubated overnight at 37°C. Afterward, the CFUs were counted and expressed as log CFU/ml. Dermonecrosis areas were calculated according to the formula π × L × W. ATP levels were determined with an ATP assay kit (Promega) according to manufacturer instructions on sets of 5 colonies harboring the SCV phenotype, and sets of 5 colonies harboring a normal phenotype, after growth on BHI plates.
# Escherichia coli K12 = details: E. coli K12; for MIC: broth microdilution, 3 independent experiments
# Method: as §2
# S. aureus Mu3 (MRSA) = assay: microbe, parasite or virus in culture; details: S. aureus Mu3 (MRSA); broth microdilution; 3 independent experiments
# Method: as §2
# S. aureus Newman = assay: microbe, parasite or virus in culture; details: S. aureus Newman; broth microdilution; 3 independent experiments
# Method: as §2
# [2] = Stability in human serum (half-life); format: in vitro ADME; details: 25% human serum, pre-incubated 15 min at 37°C, peptide 10^−4 M, RP-HPLC peak areas, mean of biological triplicates
# Method: as §2
# (§3) Supplementary file pbio.3000337.s013.docx: S7 Table Peptide half-lives in human and mouse sera. […] Peptide amounts and half-lives were determined by HPLC. Experiments were conducted on 25% human or mouse sera. Values are shown in minutes. The mean values correspond to biological triplicates. HPLC, high pressure liquid chromatography. (DOCX) Click here for additional data file.
# P. aeruginosa 15643 [3] = tested on: P. aeruginosa 15643
# Method: as §2
# Escherichia coli 066 = tested on: Escherichia coli 066
# Method: as §2
# K. pneumoniae 13829 = tested on: K. pneumoniae 13829
# Method: as §2
# Escherichia coli 758 = tested on: Escherichia coli 758
# Method: as §2
# Escherichia coli 750 = tested on: Escherichia coli 750
# Method: as §2
# Escherichia coli 508 = tested on: Escherichia coli 508
# Method: as §2
# P. aeruginosa 15641 = tested on: P. aeruginosa 15641
# Method: as §2
# Escherichia coli 283 = tested on: Escherichia coli 283
# Method: as §2
# P. aeruginosa PA14 = details: P. aeruginosa PA14
# Method: as §2
# P. aeruginosa 15644 = tested on: P. aeruginosa 15644
# Method: as §2
# Escherichia coli PV = details: E. coli PV
# Method: as §2
# K. pneumoniae 13825 = tested on: K. pneumoniae 13825
# Method: as §2
# P. aeruginosa 15638 = tested on: P. aeruginosa 15638
# Method: as §2
# A. baumanii 7985 = tested on: A. baumanii 7985
# Method: as §2
# Escherichia coli 293 = tested on: Escherichia coli 293
# Method: as §2
# Escherichia coli 444 = tested on: Escherichia coli 444
# Method: as §2
# Escherichia coli 146 = tested on: Escherichia coli 146
# Method: as §2
# A. baumanii 11896 = tested on: A. baumanii 11896
# Method: as §2
# [4] = tested on: Enterobacter cloacae ATCC13047; details: Enterobacter cloacae ATCC13047
# Method: as §2
# Escherichia coli ML35P = details: E. coli ML35P
# Method: as §2
# Escherichia coli 13090 = tested on: Escherichia coli 13090
# Method: as §2
# Escherichia coli MCR−1 = tested on: Escherichia coli MCR−1
# Method: as §2
# P. aeruginosa 15637 = tested on: P. aeruginosa 15637
# Method: as §2
# [5] = Stability in mouse serum (half-life); format: in vitro ADME; details: 25% mouse serum, pre-incubated 15 min at 37°C, peptide 10^−4 M, RP-HPLC peak areas, mean of biological triplicates
# Method: as §2, §3
# [6] = broth microdilution, 3 independent experiments
compound,measurement,setting,value
"C[C@@H]1O[C@@H]1P(=O)(O)O [Fosfomycin, fosfomycin, reference compound]",MIC,"P. aeruginosa 15643 [1]; P. aeruginosa 15643, d0 of serial passages",27 µg/mL
same,MIC,"P. aeruginosa 15643 [1]; Pseudomonas aeruginosa, 15643",200 µM
same,MIC,"E. coli MCR1; E. coli MCR1, d0 of serial passages",27 µg/mL
same,MIC,"E. coli MCR1; Escherichia coli, MCR1",200 µM
same,MIC,"E. coli 13090; E. coli 13090, d0 of serial passages",27 µg/mL
same,MIC,"E. coli 13090; Escherichia coli, 13090",200 µM
same,MIC,"E. coli K12; E. coli K12, d0 of serial passages",27 µg/mL
same,MIC,"E. coli K12; Escherichia coli, K12",200 µM
"COc1cccc(OC)c1C(=O)N[C@@H]1C(=O)N2[C@@H]1SC(C)(C)[C@@H]2C(=O)O [Methicillin, methicillin]",MIC,"S. aureus N315 (MRSA); Staphylococcus aureus, MRSA",32 µM
"CO[C@H]1/C=C/O[C@@]2(C)Oc3c(C)c(O)c4c(O)c(c(/C=N/N5CCN(C)CC5)c(O)c4c3C2=O)NC(=O)/C(C)=C\C=C\[C@H](C)[C@H](O)[C@@H](C)[C@@H](O)[C@@H](C)[C@H](OC(C)=O)[C@@H]1C [Rifampicin, rifampicin]",Increase of MIC after 2 weeks of serial passages,MSSA (Newman); S. aureus,"about 30,000 fold"
same,MIC,"MSSA (Newman); MSSA (Newman), d0 of serial passages",0.03 µM
same,MIC,"MSSA (Newman); MSSA|NEWMAN, d14 of serial passages at sub-MIC",1020 µM
same,MIC,"MRSA (Mu3); MRSA (Mu3), d14 of serial passages at sub-MIC","1,024 (843) μM"
same,MIC,"MRSA (Mu3); Staphylococcus aureus, MRSA",1020 µM
Colistine,CFU counts per abscess,P. aeruginosa LESB58,3.8 log Cfu/ml and 4 log Cfu/ml and 4.8 log Cfu/ml and 4.6 log Cfu/ml
nisin,MIC,Escherichia coli K12,4 (16) μM
same,MIC,S. aureus Mu3 (MRSA),8 (32) μM
same,MIC,"S. aureus N315 (MRSA); S. aureus N315 (MRSA), broth microdilution, 3 independent experiments",8 (32) μM
same,MIC,S. aureus Newman,8 (32) μM
polymyxin B [reference compound],Half-life in human serum,[2],23 ± 3.33 h
same,MBC/MIC,P. aeruginosa 15643 [3]; P. aeruginosa 15643,2
same,MIC,"P. aeruginosa 15643 [3]; P. aeruginosa 15643, clinical strain, Caen hemoculture, broth microdilution, 3 independent experiments",0.5 (0.65) μM
same,MBC/MIC,Escherichia coli 066; E. coli 066,1
same,MIC,"Escherichia coli 066; E. coli 066, clinical strain, Rennes urinary catheter, broth microdilution, 3 independent experiments",1 (1.3) μM
same,MBC/MIC,K. pneumoniae 13829; K. pneumoniae 13829,2
same,MIC,"K. pneumoniae 13829; K. pneumoniae 13829, clinical strain, Caen hemoculture, broth microdilution, 3 independent experiments",8 (10.4) μM
same,MBC/MIC,Escherichia coli 758; E. coli 758,1
same,MIC,"Escherichia coli 758; E. coli 758, clinical strain, Rennes urinary catheter, broth microdilution, 3 independent experiments",0.5 (0.65) μM
same,MBC/MIC,Escherichia coli 750; E. coli 750,1
same,MIC,"Escherichia coli 750; E. coli 750, clinical strain, Rennes urinary catheter, broth microdilution, 3 independent experiments",1 (1.3) μM
same,MBC/MIC,Escherichia coli 508; E. coli 508,1
same,MIC,"Escherichia coli 508; E. coli 508, clinical strain, Rennes urinary catheter, broth microdilution, 3 independent experiments",0.5 (0.65) μM
same,MBC/MIC,P. aeruginosa 15641; P. aeruginosa 15641,2
same,MIC,"P. aeruginosa 15641; P. aeruginosa 15641, clinical strain, Caen hemoculture, broth microdilution, 3 independent experiments",1 (1.3) μM
same,MBC/MIC,Escherichia coli 283; E. coli 283,1
same,MIC,"Escherichia coli 283; E. coli 283, clinical strain, Rennes urinary catheter, broth microdilution, 3 independent experiments",0.5 (0.65) μM
same,MBC/MIC,P. aeruginosa PA14,2
same,MIC,P. aeruginosa PA14; [6],0.5 (0.65) μM
same,MBC/MIC,P. aeruginosa 15644; P. aeruginosa 15644,2
same,MIC,"P. aeruginosa 15644; P. aeruginosa 15644, clinical strain, Caen hemoculture, broth microdilution, 3 independent experiments",1 (1.3) μM
same,MBC/MIC,Escherichia coli PV,1
same,MIC,"Escherichia coli PV; clinical strain, Rennes vascular prosthetics, broth microdilution, 3 independent experiments",0.5 (0.65) μM
same,MBC/MIC,K. pneumoniae 13825; K. pneumoniae 13825,2
same,MIC,"K. pneumoniae 13825; K. pneumoniae 13825, clinical strain, Caen hemoculture, broth microdilution, 3 independent experiments",2 (2.6) μM
same,MBC/MIC,Escherichia coli K12,1
same,MIC,Escherichia coli K12,0.5 (0.65) μM
same,MBC/MIC,P. aeruginosa 15638; P. aeruginosa 15638,2
same,MIC,"P. aeruginosa 15638; P. aeruginosa 15638, clinical strain, Caen hemoculture, broth microdilution, 3 independent experiments",1 (1.3) μM
same,MBC/MIC,A. baumanii 7985; A. baumanii 7985,1
same,MIC,"A. baumanii 7985; A. baumanii 7985, clinical strain, Caen hemoculture, broth microdilution, 3 independent experiments",1 (1.3) μM
same,MBC/MIC,Escherichia coli 293; E. coli 293,1
same,MIC,"Escherichia coli 293; E. coli 293, clinical strain, Rennes urinary catheter, broth microdilution, 3 independent experiments",0.5 (0.65) μM
same,MBC/MIC,Escherichia coli 444; E. coli 444,1
same,MIC,"Escherichia coli 444; E. coli 444, clinical strain, Rennes urinary catheter, broth microdilution, 3 independent experiments",0.5 (0.65) μM
same,MBC/MIC,Escherichia coli 146; E. coli 146,1
same,MIC,"Escherichia coli 146; E. coli 146, clinical strain, Rennes urinary catheter, broth microdilution, 3 independent experiments",1 (1.3) μM
same,MBC/MIC,A. baumanii 11896; A. baumanii 11896,2
same,MIC,"A. baumanii 11896; A. baumanii 11896, clinical strain, Caen hemoculture, broth microdilution, 3 independent experiments",1 (1.3) μM
same,MBC/MIC,[4],2
same,MIC,[4]; [6],8 (10.4) μM
same,MBC/MIC,Escherichia coli ML35P,1
same,MBC/MIC,Escherichia coli 13090; E. coli 13090,1
same,MIC,"Escherichia coli 13090; E. coli 13090, clinical strain, Caen hemoculture, broth microdilution, 3 independent experiments",0.5 (0.65) μM
same,MBC/MIC,Escherichia coli MCR−1; E. coli MCR−1,1
same,MIC,"Escherichia coli MCR−1; E. coli MCR−1, clinical strain, Caen hemoculture, broth microdilution, 3 independent experiments",2 (2.6) μM
same,MBC/MIC,P. aeruginosa 15637; P. aeruginosa 15637,2
same,MIC,"P. aeruginosa 15637; P. aeruginosa 15637, clinical strain, Caen hemoculture, broth microdilution, 3 independent experiments",1 (1.3) μM
same,Half-life in mouse serum,[5],10.7 ± 2.7 h
